Test results taken from US10485803B2, “Pyrimidine compounds as JAK kinase inhibitors” (THERAVANCE BIOPHARMA R&D IP, LLC, priority 2016, dated 2019).

Assays:
JAK1 = JAK1 (Homo sapiens (Human), UniProt P23458); test: LanthaScreen JAK biochemical assay, JAK1
Procedure: (§1) A panel of four LanthaScreen JAK biochemical assays (JAK1, 2, 3 and Tyk2) were carried in a common kinase reaction buffer (50 mM HEPES, pH 7.5, 0.01% Brij-35, 10 mM MgCl2, and 1 mM EGTA). Recombinant GST-tagged JAK enzymes and a GFP-tagged STAT1 peptide substrate were obtained from Life Technologies.
(§2) Serially diluted compounds were pre-incubated with each of the four JAK enzymes and the substrate in white 384-well microplates (Corning) at ambient temperature for 1 h. ATP was subsequently added to initiate the kinase reactions in 10 μl total volume, with 1% DMSO. […] The plates were allowed to incubate at ambient temperature for 1 h before being read on the EnVision reader (Perkin Elmer).
(§3) For dose-response analysis, percent inhibition data were plotted vs. compound concentrations, and IC50 values were determined from a 4-parameter robust fit model with the Prism software (GraphPad Software). Results were expressed as pIC50 (negative logarithm of IC50) and subsequently converted to pKi (negative logarithm of dissociation constant, Ki) using the Cheng-Prusoff equation.

[1] = system: IL-13 induced STAT6 phosphorylation in HT-29 human colorectal adenocarcinoma cells; test: Cellular JAK potency assay: inhibition of IL-13; format: cell-based; settings: HT-29 cells
Procedure: The potency of test compounds for inhibition of the JAK-dependent cytokine interleuken-13 (IL-13) was assessed by measuring IL-13 (IL-13, R&D Systems) induced STAT6 phosphorylation in HT-29 human colorectal adenocarcinoma cells (ATCC).
The anti-STAT6 antibody (Cell Signaling Technologies) was conjugated to AlphaScreen acceptor beads (Perkin Elmer), while the anti-pSTAT6 (pTyr641) antibody (Cell Signaling Technologies) was biotinylated using EZ-Link Sulfo-NHS-Biotin (Thermo Scientific).
HT-29 cells were grown at 37° C. in a 5% CO2 humidified incubator in McCoy's 5a Modified medium (ATCC) supplemented with 10% FBS (Hyclone), 100 U/mL penicillin, 100 μg/mL streptomycin (Life Technologies), and 2 mM GlutaMAX (Life Technologies). On day 1 of the assay, cells were seeded at a 7,500 cells/well density in white poly-D-lysine-coated 384-well plates (Corning) with 25 μL medium, and were allowed to adhere overnight in the incubator. On day 2 of the assay, the medium was removed and replaced with 12 μL of assay buffer (Hank's Balanced Salt Solution/HBSS, 25 mM HEPES, and 1 mg/ml bovine serum albumin/BSA) containing dose-responses of test compounds. Compounds were serially diluted in DMSO and then diluted another 1000-fold in media to bring the final DMSO concentration to 0.1%. Cells were incubated with test compounds at 37° C. for 1 h, and followed by the addition of 12 μl of pre-warmed IL-13 (12 ng/ml in assay buffer) for stimulation. After incubating at 37° C. for 30 min, the assay buffer (containing compound and IL-13) was removed, and 10 μl of cell lysis buffer (25 mM HEPES, 0.1% SDS, 1% NP-40, 5 mM MgCl2, 1.3 mM EDTA, 1 mM EGTA, and supplement with Complete Ultra mini protease inhibitors and PhosSTOP from Roche Diagnostics). The plates were shaken at ambient temperature for 30 min before the addition of detection reagents. A mixture of biotin-anti-pSTAT6 and anti-STAT6 conjugated acceptor beads was added first and incubated at ambient temperature for 2 h, followed by the addition of streptavidin conjugated donor beads (Perkin Elmer). After a minimum of 2 h incubation, the assay plates were read on the EnVision plate reader.
Results were expressed as the negative logarithm of the IC50 value, pIC50.

JAK2 = JAK2 (Homo sapiens (Human), UniProt O60674); test: LanthaScreen JAK biochemical assay, JAK2
Chain of JAK2 (O60674 whole entry): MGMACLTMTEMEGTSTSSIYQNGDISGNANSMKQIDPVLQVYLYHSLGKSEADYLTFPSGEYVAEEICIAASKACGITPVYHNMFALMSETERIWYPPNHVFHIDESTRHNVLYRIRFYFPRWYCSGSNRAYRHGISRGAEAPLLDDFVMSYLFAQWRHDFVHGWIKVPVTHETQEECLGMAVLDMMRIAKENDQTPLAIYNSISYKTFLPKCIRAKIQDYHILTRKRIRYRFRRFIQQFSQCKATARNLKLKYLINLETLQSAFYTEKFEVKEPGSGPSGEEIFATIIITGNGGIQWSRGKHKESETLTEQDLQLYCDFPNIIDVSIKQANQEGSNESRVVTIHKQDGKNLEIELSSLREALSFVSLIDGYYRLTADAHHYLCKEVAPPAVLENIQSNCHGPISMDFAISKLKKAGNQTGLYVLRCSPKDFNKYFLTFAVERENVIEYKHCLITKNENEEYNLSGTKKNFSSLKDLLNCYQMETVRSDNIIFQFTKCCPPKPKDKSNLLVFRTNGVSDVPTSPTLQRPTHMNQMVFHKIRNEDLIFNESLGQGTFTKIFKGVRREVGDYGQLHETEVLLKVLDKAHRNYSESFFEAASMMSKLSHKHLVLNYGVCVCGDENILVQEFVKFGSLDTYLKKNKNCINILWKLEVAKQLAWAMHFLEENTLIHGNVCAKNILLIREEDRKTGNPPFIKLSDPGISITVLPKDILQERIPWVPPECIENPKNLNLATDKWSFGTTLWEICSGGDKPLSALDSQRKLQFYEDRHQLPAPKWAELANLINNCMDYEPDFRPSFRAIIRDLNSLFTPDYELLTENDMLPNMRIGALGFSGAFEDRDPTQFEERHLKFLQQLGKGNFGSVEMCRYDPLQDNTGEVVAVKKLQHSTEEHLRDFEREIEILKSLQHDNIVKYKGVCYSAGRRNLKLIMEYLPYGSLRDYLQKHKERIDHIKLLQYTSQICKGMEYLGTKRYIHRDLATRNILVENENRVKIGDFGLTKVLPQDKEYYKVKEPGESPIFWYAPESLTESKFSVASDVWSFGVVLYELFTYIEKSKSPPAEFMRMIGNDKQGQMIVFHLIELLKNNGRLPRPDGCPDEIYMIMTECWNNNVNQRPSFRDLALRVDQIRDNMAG
Procedure: as §1, §2, §3

[2] = Determination of absorption in cannulated rats; format: in vivo, Sprague Dawley rats; settings: rat, oral vs IV dose, portal vein
Procedure: Oral bioavailability (F %), fraction absorbed (Fa%) and fraction escaping hepatic clearance (Fh%) were determined in Sprague Dawley rats from the following two studies:
(1) Pharmacokinetics in rats following an IV dose of test compound: Following IV dosing, plasma samples were typically collected from 0-6 hr. Drug levels were determined using an LC-MS-MS method. The resulting drug levels were used to compute the IV pharmacokinetic parameters: AUC IV and Dose IV.
(2) Rats that have been cannulated in their portal vein (PV) and also in their jugular vein (JV) were dosed orally with test compound. Following oral dosing, plasma samples were typically collected from 0-6 hr from both the portal vein and the jugular vein. Drug levels were determined using an LC-MS-MS method. The resulting drug levels were used to compute the following pharmacokinetic parameters: AUC PO PV, AUC PO JV, and Dose PO.
Using data derived from the above studies, the oral bioavailability F %, and the quantities Fa% and Fh% were calculated from the following formulas: F%=(AUC PO JV/AUC IV)*(Dose IV/Dose PO)*100 Fa%=(AUC PO PV/AUC IV)*(Dose IV/Dose PO)*100 Fh%=AUC PO JV/AUC PO PV • where: • AUC PO JV=Area under the curve following oral dose and plasma collected from the jugular vein • AUC PO PV=Area under the curve following oral dose and plasma collected from the portal vein • AUC IV=Area under the curve following an intravenous dose • Dose IV=Intravenous Dose in mg/kg • Dose PO=Oral Dose in mg/kg

[3] = system: oxazolone-induced colitis; test: Mouse model of oxazolone-induced colitis; format: in vivo, BALB/C mice; settings: mice, PO, 1, 3, and/or 10 mg/kg BID
Procedure: Oxazolone-induced colitis is an experimental model that has a histological resemblance to human ulcerative colitis (Heller et al. […], 2002, 17, 629-638). Adult BALB/C mice from Harlan were used in the assay. On day 1, animals were lightly anesthetized with isoflurane and the hairs between the shoulder were carefully removed before oxazolone (4%, 150 μL, 4:1 acetone: olive oil formulation) or vehicle solution was slowly applied for skin sensitization. Seven days after skin sensitization, the mice were fasted overnight, anesthetized with isoflurane inhalation, and a 1 mL syringe equipped with a 3.5-F catheter, filled with oxazolone solution, was inserted carefully about 4 cm into the colon of the mouse. Following insertion, 50 μL of the oxazolone solution (1%, 1:1 ethanol:water formulation) was injected very slowly (over 30 sec using an injection pump) into the colon. The catheter was removed and the mice were held vertically (head down) for 2 min to ensure that the entire oxazolone solution remained inside the colon. Drug treatment (PO, BID or TID) or vehicle was initiated a day prior to the oxazolone intrarectal (IR) challenge. Two-day post oxazolone intrarectal challenge, the Disease Activity Index (DAI) was assessed by treatment-blinded experimenters for each mouse according to the criteria score: stool consistency score (0, normal; 2, loose; 4, diarrhea), gross bleeding score (0, absence; 2, blood tinged; 4, presence), and weight loss score (0, none; 1, 1%-5%; 2, 5%-10%; 3, 10%-20%; 4, more than 20%); DAI=average of (stool consistency score+gross bleeding score+weight loss score).

[4] = Dynamic moisture sorption assessment; format: physicochemical; settings: for hygroscopicity: 5% to 90% RH, two cycles of sorption and desorption; for weight gain in the humidity range of 5% to 90% relative humidity: 25° C. / room temperature
Procedure: Dynamic moisture sorption (DMS) measurement was performed using a VTI atmospheric microbalance, SGA-100 system (VTI Corp., Hialeah, Fla. 33016). A weighed sample was used and the humidity was lowest possible value (close to 0% RH) at the start of the analysis. The DMS analysis consisted of an initial drying step (0% RH) for 120 minutes, followed by two cycles of sorption and desorption with a scan rate of 5% RH/step over the humidity range of 5% RH to 90% RH. The DMS run was performed isothermally at 25° C.

Chain of JAK1 (P23458 whole entry): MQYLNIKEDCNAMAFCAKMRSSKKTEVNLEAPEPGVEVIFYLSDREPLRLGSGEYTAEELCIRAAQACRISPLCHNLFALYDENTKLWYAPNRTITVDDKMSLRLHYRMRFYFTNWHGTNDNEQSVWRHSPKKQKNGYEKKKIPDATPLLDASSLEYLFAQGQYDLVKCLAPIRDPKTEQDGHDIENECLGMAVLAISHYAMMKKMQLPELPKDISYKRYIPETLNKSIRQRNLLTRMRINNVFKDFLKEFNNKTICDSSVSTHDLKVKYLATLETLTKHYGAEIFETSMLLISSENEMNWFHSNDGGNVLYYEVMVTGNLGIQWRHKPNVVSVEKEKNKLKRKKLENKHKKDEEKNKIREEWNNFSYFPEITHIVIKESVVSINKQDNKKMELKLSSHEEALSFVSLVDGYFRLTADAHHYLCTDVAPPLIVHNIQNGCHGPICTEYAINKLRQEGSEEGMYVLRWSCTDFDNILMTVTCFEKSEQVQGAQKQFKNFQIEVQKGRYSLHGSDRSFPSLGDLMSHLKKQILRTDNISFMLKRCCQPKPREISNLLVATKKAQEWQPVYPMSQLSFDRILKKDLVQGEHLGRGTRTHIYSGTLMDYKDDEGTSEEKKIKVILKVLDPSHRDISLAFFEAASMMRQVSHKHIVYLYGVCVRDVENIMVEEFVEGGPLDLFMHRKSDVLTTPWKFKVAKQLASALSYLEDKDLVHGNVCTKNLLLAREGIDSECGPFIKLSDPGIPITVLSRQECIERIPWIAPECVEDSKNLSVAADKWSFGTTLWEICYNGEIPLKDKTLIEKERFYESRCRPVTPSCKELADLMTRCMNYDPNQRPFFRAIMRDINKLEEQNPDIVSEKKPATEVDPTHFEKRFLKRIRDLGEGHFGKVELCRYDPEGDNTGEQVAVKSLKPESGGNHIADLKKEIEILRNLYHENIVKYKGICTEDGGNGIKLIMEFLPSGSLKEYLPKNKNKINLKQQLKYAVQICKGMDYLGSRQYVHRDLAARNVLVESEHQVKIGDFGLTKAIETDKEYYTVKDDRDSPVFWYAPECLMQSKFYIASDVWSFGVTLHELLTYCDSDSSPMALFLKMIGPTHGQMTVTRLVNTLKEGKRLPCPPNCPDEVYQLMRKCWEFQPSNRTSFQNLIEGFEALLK

COc1cc(Nc2cc(CO)[nH]n2)nc(N[C@@H]2C[C@H]3CCC[C@@H](C2)N3S(=O)(=O)N2CC(C#N)C2)n1 [Example 1-6, 1-(((1R,3s,5S)-3-((4-((5-(hydroxymethyl)-1H-pyrazol-3-yl)amino)-6-methoxypyrimidin-2-yl)amino)-9-azabicyclo[3.3.1]nonan-9-yl)sulfonyl)azetidine-3-carbonitrile]
JAK 1 (pKi) (JAK1): A (A represents a pKi value ≥10 (Ki≤0.1 nM))

COc1cc(Nc2cc(CO)[nH]n2)nc(N[C@@H]2C[C@H]3CCC[C@@H](C2)N3S(=O)(=O)c2ccccc2)n1 [Example 1-8, (3-((6-methoxy-2-(((1R,3s,5S)-9-(phenylsulfonyl)-9-azabicyclo[3.3.1]nonan-3-yl)amino)pyrimidin-4-yl)amino)-1H-pyrazol-5-yl)methanol]
HT-29 (pIC50) [1]: A (A represents a pIC50 value ≥7.5 (IC50≤32 nM))
JAK 1 (pKi) (JAK1): A (A represents a pKi value ≥10 (Ki≤0.1 nM))

COc1cc(Nc2cc(CO)[nH]n2)nc(N(C)[C@@H]2C[C@H]3CCC[C@@H](C2)N3S(=O)(=O)N2CCCC2)n1 [Example 1-13, (3-((6-methoxy-2-(methyl((1R,3s,5S)-9-(pyrrolidin-1-ylsulfonyl)-9-azabicyclo[3.3.1]nonan-3-yl)amino)pyrimidin-4-yl)amino)-1H-pyrazol-5-yl)methanol]
HT-29 (pIC50) [1]: A (A represents a pIC50 value ≥7.5 (IC50≤32 nM))
JAK 1 (pKi) (JAK1): A (A represents a pKi value ≥10 (Ki≤0.1 nM))
JAK 2 (pKi) (JAK2): A (A represents a pKi value ≥10 (Ki≤0.1 nM))

COc1cc(Nc2cc(CO)[nH]n2)nc(N(C)[C@@H]2C[C@H]3CCC[C@@H](C2)N3S(=O)(=O)C2CC2)n1 [Example 1-14, (3-((2-(((1R,3s,5S)-9-(cyclopropylsulfonyl)-9-azabicyclo[3.3.1]nonan-3-yl)(methyl)amino)-6-methoxypyrimidin-4-yl)amino)-1H-pyrazol-5-yl)methanol]
HT-29 (pIC50) [1]: A (A represents a pIC50 value ≥7.5 (IC50≤32 nM))
JAK 2 (pKi) (JAK2): A (A represents a pKi value ≥10 (Ki≤0.1 nM))

COc1cc(Nc2cc(CO)[nH]n2)nc(N(C)[C@@H]2C[C@H]3CCC[C@@H](C2)N3S(=O)(=O)c2cccnc2)n1 [Example 1-15, (3-((6-methoxy-2-(methyl((1R,3s,5S)-9-(pyridin-3-ylsulfonyl)-9-azabicyclo[3.3.1]nonan-3-yl)amino)pyrimidin-4-yl)amino)-1H-pyrazol-5-yl)methanol]
JAK 2 (pKi) (JAK2): A (A represents a pKi value ≥10 (Ki≤0.1 nM))

COc1cc(Nc2cc(CO)[nH]n2)nc(N(C)[C@@H]2C[C@H]3CCC[C@@H](C2)N3S(=O)(=O)N2CCC2)n1 [Example 1-17, (3-((2-(((1R,3s,5S)-9-(azetidin-1-ylsulfonyl)-9-azabicyclo[3.3.1]nonan-3-yl)(methyl)amino)-6-methoxypyrimidin-4-yl)amino)-1H-pyrazol-5-yl)methanol]
HT-29 (pIC50) [1]: A (A represents a pIC50 value ≥7.5 (IC50≤32 nM))
JAK 2 (pKi) (JAK2): A (A represents a pKi value ≥10 (Ki≤0.1 nM))

COc1cc(Nc2cc(CO)[nH]n2)nc(N(C)[C@@H]2C[C@H]3CCC[C@@H](C2)N3S(=O)(=O)c2cncc(F)c2)n1 [Example 1-19, (3-((2-(((1R,3s,5S)-9-((5-fluoropyridin-3-yl)sulfonyl)-9-azabicyclo[3.3.1]nonan-3-yl)(methyl)amino)-6-methoxypyrimidin-4-yl)amino)-1H-pyrazol-5-yl)methanol]
HT-29 (pIC50) [1]: A (A represents a pIC50 value ≥7.5 (IC50≤32 nM))

COc1cc(Nc2cc(CO)[nH]n2)nc(N(C)[C@@H]2C[C@H]3CCC[C@@H](C2)N3S(C)(=O)=O)n1 [Example 3, (3-((6-methoxy-2-(methyl((1R,3s,5S)-9-(methylsulfonyl)-9-azabicyclo[3.3.1]nonan-3-yl)amino)pyrimidin-4-yl)amino)-1H-pyrazol-5-yl)methanol]
absorption at the portal vein (Fa%) [2]: greater than 40%

COCCS(=O)(=O)N1[C@@H]2CCC[C@H]1C[C@H](N(C)c1nc(Nc3cc(CO)[nH]n3)cc(OC)n1)C2 [Example 4, (3-((6-methoxy-2-(((1R,3s,5S)-9-((2-methoxyethyl)sulfonyl)-9-azabicyclo[3.3.1]nonan-3-yl)(methyl)amino)pyrimidin-4-yl)amino)-1H-pyrazol-5-yl)methanol]
absorption at the portal vein (Fa%) [2]: greater than 40%
decrease in DAI score as compared with vehicle treated animals [3]: statistically significant decrease

COc1cc(Nc2cc(CO)[nH]n2)nc(N(C)[C@@H]2C[C@H]3CCC[C@@H](C2)N3C(=O)C(F)F)n1 [Example 9, 2,2-difluoro-1-((1R,3s,5S)-3-((4-((5-(hydroxymethyl)-1H-pyrazol-3-yl)amino)-6-methoxypyrimidin-2-yl)(methyl)amino)-9-azabicyclo[3.3.1]nonan-9-yl)ethan-1-one]
IC50 ([1]; Homo sapiens, read-out: HT-29 (pIC50) (converted)): 31.6 to 200 nM

COc1cc(Nc2cc(CO)[nH]n2)nc(N(C)[C@@H]2C[C@H]3CCC[C@@H](C2)N3S(=O)(=O)N2CC(C#N)C2)n1 [Form I, 1-(((1R,3s,5S)-3-((4-((5-(hydroxymethyl)-1H-pyrazol-3-yl)amino)-6-methoxypyrimidin-2-yl)(methyl)amino)-9-azabicyclo[3.3.1]nonan-9-yl)sulfonyl)azetidine-3-carbonitrile]
hygroscopicity [4]: non-hygroscopic
weight gain in the humidity range of 5% to 90% relative humidity [4]: less than 0.4%
weight gain in the humidity range of 5% to 90% relative humidity ([4]; listed as Crystalline 1-((1R,3s,5S)-3-((4-((5-(hydroxymethyl)-1H-pyrazol-3-yl)amino)-6-me)))): less than 0.4%

COc1cc(Nc2cc(CO)[nH]n2)nc(N(C)[C@@H]2C[C@H]3CCC[C@@H](C2)N3S(=O)(=O)N2CC(C#N)C2)n1 [Form II, 1-(((1R,3s,5S)-3-((4-((5-(hydroxymethyl)-1H-pyrazol-3-yl)amino)-6-methoxypyrimidin-2-yl)(methyl)amino)-9-azabicyclo[3.3.1]nonan-9-yl)sulfonyl)azetidine-3-carbonitrile]
hygroscopicity [4]: slightly hygroscopic
weight gain in the humidity range of 5% to 90% relative humidity [4]: about 1.2%
